Consider 23 compounds from US20220089578A1, “COMPOUNDS AS GLP-1R AGONISTS” (Terns Pharmaceuticals, Inc., priority 2020, published 2022).

SMILES strings stand for the structures.

Sequence of human GLP-1R (P43220 24-463): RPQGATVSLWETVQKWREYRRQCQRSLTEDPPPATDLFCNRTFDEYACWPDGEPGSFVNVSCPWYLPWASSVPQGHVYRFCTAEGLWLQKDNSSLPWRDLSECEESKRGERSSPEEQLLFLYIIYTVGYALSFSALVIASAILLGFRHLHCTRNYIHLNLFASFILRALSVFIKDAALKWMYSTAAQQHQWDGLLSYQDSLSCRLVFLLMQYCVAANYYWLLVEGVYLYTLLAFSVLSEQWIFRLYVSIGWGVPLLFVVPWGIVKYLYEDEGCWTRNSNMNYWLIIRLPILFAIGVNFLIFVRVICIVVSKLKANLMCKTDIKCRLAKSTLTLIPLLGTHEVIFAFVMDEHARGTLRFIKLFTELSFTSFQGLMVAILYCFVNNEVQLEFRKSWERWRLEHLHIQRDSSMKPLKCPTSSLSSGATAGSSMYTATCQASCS

The target in one assay is human GLP-1R (Homo sapiens, UniProt P43220). As to the kind of experiment: GLP-1R Cell Assay 1: cAMP Hunter CHO-K1 GLP1R Gs cell line, HitHunter cAMP assay. It is filed as cell-based. The following applies: Table 2; cAMP Hunter CHO-K1 GLP1R Gs cells; percent activity normalized to Exendin-4. How it is done:
GLP-1R mediated agonist activity was determined using the cAMP Hunter CHO-K1 GLP1R Gs cell line (DiscoverX, cat# 95-0062C2), a stable CHO-K1 derived cell lines overexpressing naturally Gs coupled wild-type human GLP-1R (accession number: NM_002062.3). GLP-1R agonism in this cell line was detected by measuring cellular cAMP levels using the HitHunter cAMP assay kit (cat# 90-0075SM2), a homogenous, gain-of-signal competitive immune assay based on Enzyme Fragment Complementation (EFC) technology. In this system cellular cAMP competes with exogenous labeled cAMP (ED-cAMP) for binding to an anti-cAMP antibody. […] The luminescent signal is directly proportional to the amount of cellular cAMP.
For compound testing, cells were seeded in a total volume of 20 μL in white walled, 384-well microplates and incubated at 37° C. prior to compound testing. Prior to compound addition, cell culture media was removed by aspiration and replaced with 15 pt reagent buffer (2:1 HBSS/10 mM HEPES: cAMP XS+Ab reagent). Compounds were dissolved in DSMO and serially diluted (3-fold) prior to final dilution to 4X in assay buffer. Samples (5 μL) were added to cells and incubated at 37° C. for […] prior to 1 hour incubation with 20 pt cAMP XS+ED/CL lysis reagent and 3 hour incubation with 20 μL cAMP XS+EA reagent at room temperature. Microplates were read on a PerkinElmer Envision instrument. Compound activity was analyzed using CBIS data analysis suite (ChemInnovation). Percent activity was calculated based on duplicate assay runs and normalized to the positive control Exendin-4, a GLP-1R peptide agonist, using the following formula: […]
The effective compound concentration resulting in 50% response (EC50) was determined by non-linear regression analysis of dose-response curves.
(cAMP levels reflect the balance of adenylyl cyclase and phosphodiesterase activity.)
Consider `CN(Cc1ccc(C(N)=O)cc1)c1cccc(N2CCN(Cc3nc4ccc(C(=O)O)cc4n3C[C@@H]3CCO3)CC2)n1` [Compound 64, (S)-2-((4-(6-((4-carbamoylbenzyl)(methyl)amino)pyridin-2-yl)piperazin-1-yl)methyl)-1-(oxetan-2-ylmethyl)-1H-benzo[d]imidazole-6-carboxylic acid], for which the half-maximal effective concentration (EC50) was > 500 nM.

Turning to `O=C(O)c1ccc2nc(CN3CCN(c4cccc(OCC5COC5)n4)CC3)n(C[C@@H]3CCO3)c2c1` [Compound 47, (S)-1-(oxetan-2-ylmethyl)-2-((4-(6-(oxetan-3-ylmethoxy)pyridin-2-yl)piperazin-1-yl)methyl)-1H-benzo[d]imidazole-6-carboxylic acid], the EC50 is > 500 nM.

`O=C(O)c1ccc2nc(CN3CCN(c4cccc(OCC5CCC5)n4)CC3)n(C[C@@H]3CCO3)c2c1` [Compound 88, (S)-2-((4-(6-(cyclobutylmethoxy)pyridin-2-yl)piperazin-1-yl)methyl)-1-(oxetan-2-ylmethyl)-1H-benzo[d]imidazole-6-carboxylic acid] yielded an EC50 of 239 nM.

As for `O=C(O)c1ccc2nc(CN3CCC(c4cccc(OCc5ncc(Cl)s5)n4)CC3)n(C[C@@H]3CCO3)c2c1` [Compound 134, (S)-2-((4-(6-((5-chlorothiazol-2-yl)methoxy)pyridin-2-yl)piperidin-1-yl)methyl)-1-(oxetan-2-ylmethyl)-1H-benzo[d]imidazole-6-carboxylic acid], a half-maximal effect (EC50) was put at 0.222 nM.

With `N#Cc1ccc(COc2cccc(N3CCC(Cc4nc5ccc(C(=O)O)cc5n4C[C@@H]4CCO4)CC3)n2)c(F)c1` [Compound 15, (S)-2-((1-(6-((4-cyano-2-fluorobenzyl)oxy)pyridin-2-yl)piperidin-4-yl)methyl)-1-(oxetan-2-ylmethyl)-1H-benzo[d]imidazole-6-carboxylic acid], the half-maximal effective concentration (EC50) stood at 0.311 nM.

With `N#Cc1cccc2c1CCCN(c1cccc(N3CCN(Cc4nc5ccc(C(=O)O)cc5n4C[C@@H]4CCO4)CC3)n1)C2` [Compound 78, (S)-2-((4-(6-(6-cyano-1,3,4,5-tetrahydro-2H-benzo[c]azepin-2-yl)pyridin-2-yl)piperazin-1-yl)methyl)-1-(oxetan-2-ylmethyl)-1H-benzo[d]imidazole-6-carboxylic acid], the half-maximal effective concentration (EC50) was determined as 56.2 nM.

As for `N#Cc1cc(F)c2c(c1)CCN(c1cccc(N3CCN(Cc4nc5ccc(C(=O)O)cc5n4C[C@@H]4CCO4)CC3)n1)C2` [Compound 73, (S)-2-((4-(6-(6-cyano-8-fluoro-3,4-dihydroisoquinolin-2(1H)-yl)pyridin-2-yl)piperazin-1-yl)methyl)-1-(oxetan-2-ylmethyl)-1H-benzo[d]imidazole-6-carboxylic acid], a half-maximal response (EC50) required 1.43 nM.

In turn, `N#Cc1ccc(COc2nn(C3CCN(Cc4nc5ccc(C(=O)O)cc5n4C[C@@H]4CCO4)CC3)cc2Cl)c(F)c1` [Compound 102, (S)-2-((4-(4-chloro-3-((4-cyano-2-fluorobenzyl)oxy)-1H-pyrazol-1-yl)piperidin-1-yl)methyl)-1-(oxetan-2-ylmethyl)-1H-benzo[d]imidazole-6-carboxylic acid] returned a half-maximal effective concentration (EC50) of 3.94 nM.

`CN(Cc1ccc(C#N)cc1)c1cccc(N2CCN(Cc3nc4ccc(C(=O)O)cc4n3C[C@@H]3CCO3)CC2)n1` [Compound 63, (S)-2-((4-(6-((4-cyanobenzyl)(methyl)amino)pyridin-2-yl)piperazin-1-yl)methyl)-1-(oxetan-2-ylmethyl)-1H-benzo[d]imidazole-6-carboxylic acid] registered an EC50 of 54.5 nM.

`O=C(O)c1ccc2nc(CN3CCN(c4cccc(OCc5ccc6ccccc6n5)n4)CC3)n(C[C@@H]3CCO3)c2c1` [Compound 82, (S)-1-(oxetan-2-ylmethyl)-2-((4-(6-(quinolin-2-ylmethoxy)pyridin-2-yl)piperazin-1-yl)methyl)-1H-benzo[d]imidazole-6-carboxylic acid] showed a concentration giving a half-maximal response (EC50) of 2.78 nM.

`O=C(O)c1ccc2nc(CN3CCN(c4cccc(OCc5ccc6ccccc6c5)n4)CC3)n(C[C@@H]3CCO3)c2c1` [Compound 70, (S)-2-((4-(6-(naphthalen-2-ylmethoxy)pyridin-2-yl)piperazin-1-yl)methyl)-1-(oxetan-2-ylmethyl)-1H-benzo[d]imidazole-6-carboxylic acid] displayed a half-maximal effective concentration (EC50) of 1.19 nM.

In turn, `O=C(O)c1ccc2nc(CN3CC[C@@]4(c5cccc(OCc6ccc(Cl)cc6Cl)n5)C[C@H]4C3)n(C[C@@H]3CCO3)c2c1` (single isomer, unassigned) [Compound 126-P1] gave an EC50 of 0.174 nM.

In turn, `O=C(O)c1ccc2nc(CN3CCN(c4cccc(OC5CN(c6ccccc6)C5)n4)CC3)n(C[C@@H]3CCO3)c2c1` [Compound 39, (S)-1-(oxetan-2-ylmethyl)-2-((4-(6-((1-phenylazetidin-3-yl)oxy)pyridin-2-yl)piperazin-1-yl)methyl)-1H-benzo[d]imidazole-6-carboxylic acid] registered a 50% effective concentration (EC50) of 420 nM.

Take `N#Cc1ccc2c(c1)CCN(c1ccn(C3CCN(Cc4nc5ccc(C(=O)O)cc5n4C[C@@H]4CCO4)CC3)n1)CC2` [Compound 106, (S)-2-((4-(3-(7-cyano-1,2,4,5-tetrahydro-3H-benzo[d]azepin-3-yl)-1H-pyrazol-1-yl)piperidin-1-yl)methyl)-1-(oxetan-2-ylmethyl)-1H-benzo[d]imidazole-6-carboxylic acid]: the EC50 was > 500 nM.

Consider `CCn1cncc1Cn1c(CN2CCC(c3cccc(N4CCc5cc(C#N)cc(F)c5C4)n3)CC2)nc2ccc(C(=O)O)cc21` [Compound 137, 2-((4-(6-(6-cyano-8-fluoro-3,4-dihydroisoquinolin-2(1H)-yl)pyridin-2-yl)piperidin-1-yl)methyl)-1-((1-ethyl-1H-imidazol-5-yl)methyl)-1H-benzo[d]imidazole-6-carboxylic acid], for which the EC50 is 0.0514 nM.

`Cc1cc(OCc2ccccc2)nn1C1CCN(Cc2nc3ccc(C(=O)O)cc3n2C[C@@H]2CCO2)CC1` [Compound 21, (S)-2-((4-(3-(benzyloxy)-5-methyl-1H-pyrazol-1-yl)piperidin-1-yl)methyl)-1-(oxetan-2-ylmethyl)-1H-benzo[d]imidazole-6-carboxylic acid] had an EC50 of 2770 nM.

The same assay, now with this note: Table 3; cAMP Hunter CHO-K1 GLP1R Gs cells; percent activity normalized to Exendin-4.
The compound `CCn1cncc1Cn1c(CN2CC[C@@]3(c4cccc(N5CCc6cc(C#N)cc(F)c6C5)n4)C[C@H]3C2)nc2ccc(C(=O)O)cc21` [Compound 184-P1, 2-(((1R,6S)-6-(6-(6-cyano-8-fluoro-3,4-dihydroisoquinolin-2(1H)-yl)pyridin-2-yl)-3-azabicyclo[4.1.0]heptan-3-yl)methyl)-1-((1-ethyl-1H-imidazol-5-yl)methyl)-1H-benzo[d]imidazole-6-carboxylic acid] showed a concentration giving a half-maximal response (EC50) of 0.266 nM.

`O=C(O)c1ccc2nc(CN3CCC(c4cccc(OC5CCCc6ccccc65)n4)CC3)n(C[C@@H]3CCO3)c2c1` (stereo partly drawn) [Compound 161, 1-(((S)-oxetan-2-yl)methyl)-2-((4-(6-((1,2,3,4-tetrahydronaphthalen-1-yl)oxy)pyridin-2-yl)piperidin-1-yl)methyl)-1H-benzo[d]imidazole-6-carboxylic acid] returned an EC50 of 304 nM.

For the compound `O=C(O)c1ccc2nc(CN3CCN(c4ccc5c(n4)N(Cc4ccccc4)CCO5)CC3)n(C[C@@H]3CCO3)c2c1` [Compound 149, (S)-2-((4-(4-benzyl-3,4-dihydro-2H-pyrido[3,2-b][1,4]oxazin-6-yl)piperazin-1-yl)methyl)-1-(oxetan-2-ylmethyl)-1H-benzo[d]imidazole-6-carboxylic acid/], the EC50 is > 500 nM.

For `N#Cc1ccc([C@@H]2CCc3c(cccc3N3CCN(Cc4nc5ccc(C(=O)O)cc5n4C[C@@H]4CCO4)CC3)O2)c(F)c1` (single isomer, unassigned) [Compound 151-P2], the concentration for a half-maximal effect (EC50) is > 500 nM.

For `CCn1ccnc1Cn1c(CN2CC[C@]3(c4cccc(N5CCc6cc(C#N)cc(F)c6C5)n4)C[C@@H]3C2)nc2ccc(C(=O)O)cc21` [Compound 163-P2, 2-(((1S,6R)-6-(6-(6-cyano-8-fluoro-3,4-dihydroisoquinolin-2(1H)-yl)pyridin-2-yl)-3-azabicyclo[4.1.0]heptan-3-yl)methyl)-1-((1-ethyl-1H-imidazol-2-yl)methyl)-1H-benzo[d]imidazole-6-carboxylic acid], a half-maximal effect (EC50) was put at 0.414 nM.

`O=C(O)c1ccc2nc(CN3CCN(c4ccc5c(n4)N(Cc4ccccc4)C(=O)CC5)CC3)n(C[C@@H]3CCO3)c2c1` [Compound 158, (S)-2-((4-(8-benzyl-7-oxo-5,6,7,8-tetrahydro-1,8-naphthyridin-2-yl)piperazin-1-yl)methyl)-1-(oxetan-2-ylmethyl)-1H-benzo[d]imidazole-6-carboxylic acid]: the concentration for a half-maximal effect (EC50) was > 500 nM.

Take `O=C(O)c1ccc2nc(CN3CCN(c4ccc5c(n4)N(Cc4ccccc4)C(=O)CO5)CC3)n(C[C@@H]3CCO3)c2c1` [Compound 154, (S)-2-((4-(4-benzyl-3-oxo-3,4-dihydro-2H-pyrido[3,2-b][1,4]oxazin-6-yl)piperazin-1-yl)methyl)-1-(oxetan-2-ylmethyl)-1H-benzo[d]imidazole-6-carboxylic acid]: the EC50 is > 500 nM.

In general, EC50 refers to the concentration giving half of the maximal effect. Read a high EC50 as lower potency in that assay.
